We go through 17 compounds from the supplement of paper PMC9265050, “Inhibition of RNA Binding in SND1 Increases the Levels of miR-1-3p and Sensitizes Cancer Cells to Navitoclax” (Cancers, 2022).

The assay concerns SW480. In words: drug sensitivity score (DSS, integrated dose-response area); higher = more sensitive (stronger viability reduction); extreme values may be limits of the assay. The gist of the method:
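Viability of induced SW480 cells carrying control or SND1-targeting shRNA was read by CellTiter-Glo 72 h after plating at 1000 cells per well onto 384-well plates holding 525 small-molecule inhibitors at five concentrations. Induction used 0.1 µg/mL doxycycline for 7 days. Each drug sensitivity score integrates the area under a fitted non-linear dose–response model.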

Where [1] appears, read: shRNA: SND1 shRNA1 (SND1 silenced).
[2] abbreviates: shRNA: SND1 shRNA2 (SND1 silenced).
Where [3] appears, read: shRNA: control shRNA (non-targeting).

Compound `CC(C)CC(=O)Nc1n[nH]c2c1CN(C(=O)C1CCN(C)CC1)C2(C)C` yielded a drug sensitivity score under setting [1] of 6.1 DSS, a drug sensitivity score under setting [2] of 5.8 DSS and a drug sensitivity score under setting [3] of 10.7 DSS.

In the case of `CCc1c2c(nc3ccc(O)cc13)-c1cc3c(c(=O)n1C2)COC(=O)[C@]3(O)CC` [SN-38], the drug sensitivity score runs as follows: under setting [1], 21.2 DSS; under setting [2], 12.5 DSS; under setting [3], 18.7 DSS.

Consider `O=c1[nH]c(=O)n([C@H]2C[C@H](O)[C@@H](CO)O2)cc1F` [Floxuridine], for which the drug sensitivity score runs as follows: under setting [1], 12.8 DSS; under setting [2], 3 DSS; under setting [3], 4.3 DSS.

Regarding `Cc1ccc(-n2nc(C(C)(C)C)cc2NC(=O)Nc2ccc(OCCN3CCOCC3)c3ccccc23)cc1` [Doramapimod], the drug sensitivity score by setting is: under setting [1], 4.1 DSS; under setting [2], 5.5 DSS; under setting [3], 6 DSS.

Take `CNC(=O)c1ccc(N2C(=S)N(c3cnc(C#N)c(C(F)(F)F)c3)C(=O)C23CCC3)cc1F` [ARN 509]: the drug sensitivity score stood at 0.7 DSS under setting [1], 0 DSS under setting [2] and 0.9 DSS under setting [3].

In the case of `CCCC(CCC)C(=O)O` [Valproic acid], the drug sensitivity score is 0 DSS under setting [1] and 0 DSS under setting [3].

Take `CC1(C)CNc2cc(NC(=O)c3cccnc3NCc3ccncc3)ccc21` [Motesanib]: the drug sensitivity score by setting is: under setting [1], 0 DSS; under setting [2], 0.4 DSS; under setting [3], 0 DSS.

For the compound `C=CCN(/C=C1/C(=O)O[C@H](COC)[C@@]2(C)C1=C(O)C(=O)C1=C2[C@H](OC(C)=O)C[C@]2(C)C(=O)CC[C@@H]12)CC=C` [Sonolisib], the drug sensitivity score by setting is: under setting [1], 0 DSS; under setting [2], 0.3 DSS; under setting [3], 2.1 DSS.

`C/C(=C\c1csc(C)n1)[C@@H]1C[C@@H]2O[C@]2(C)CCC[C@H](C)[C@H](O)[C@@H](C)C(=O)C(C)(C)[C@@H](O)CC(=O)N1` [Ixabepilone]: the drug sensitivity score runs as follows: under setting [1], 3 DSS; under setting [2], 2.7 DSS; under setting [3], 2.5 DSS.

On to `C[C@@H]1CN(Cc2ccc(F)cc2)[C@@H](C)CN1C(=O)c1cc2c(C(=O)C(=O)N(C)C)cn(C)c2cc1Cl` [Talmapimod], for which the drug sensitivity score came out at 0 DSS under setting [1] and 0 DSS under setting [3].

`Nc1nc(OCc2cc(Br)cs2)c2[nH]cnc2n1` [Lomeguatrib] yielded a drug sensitivity score under setting [1] of 0 DSS, a drug sensitivity score under setting [2] of 1.9 DSS and a drug sensitivity score under setting [3] of 0.5 DSS.

For the compound `O=C(O)CNC(=O)c1c(O)c2ccccc2n(Cc2ccccc2)c1=O` [IOX-2], the drug sensitivity score is 5 DSS under setting [1], 2.3 DSS under setting [2] and 6.2 DSS under setting [3].

With `CCOc1cc2ncc(C#N)c(Nc3ccc(OCc4ccccn4)c(Cl)c3)c2cc1NC(=O)/C=C/CN(C)C` [Neratinib], the drug sensitivity score was determined as 3.9 DSS under setting [1], 4.3 DSS under setting [2] and 4 DSS under setting [3].

Take `CCNC(=O)Nc1ccc(-c2nc3c(c(N4CCOC[C@@H]4C)n2)CCN(C2COC2)C3)cc1` [RG-7603]: the drug sensitivity score worked out at 0.7 DSS under setting [1], 1.3 DSS under setting [2] and 0.7 DSS under setting [3].

In the case of `CC1(C)CCC(c2ccc(Cl)cc2)=C(CN2CCN(c3ccc(C(=O)NS(=O)(=O)c4ccc(N[C@H](CCN5CCOCC5)CSc5ccccc5)c(S(=O)(=O)C(F)(F)F)c4)cc3)CC2)C1` [Navitoclax], the drug sensitivity score runs as follows: under setting [1], 7.4 DSS; under setting [2], 5.6 DSS; under setting [3], 0 DSS.

On to `O=C(Nc1cccnc1)N1CCC(Cc2cccc(Oc3ccc(C(F)(F)F)cn3)c2)CC1` [PF-3845], for which the drug sensitivity score by setting is: under setting [1], 0.1 DSS; under setting [2], 2.4 DSS; under setting [3], 0.3 DSS.

As to `NC(=S)N/N=C/c1ncccc1N` [Triapine], the drug sensitivity score under setting [1] was found to be 2.8 DSS and the drug sensitivity score under setting [3] stood at 2.4 DSS.
